Data published in patent US11571444B2, “Enhancement of MSC immunomodulatory properties by treprostinil” (United Therapeutics Corporation, priority 2016, dated 2023).

How the values were obtained:
[1] = system: human bone marrow-derived MSC; assay: MSC morphology after 48 hours exposure (cytotoxic effect); type: cell-based; conditions: 48 hours of culture
Protocol: (§1) A single vial of human bone marrow-derived MSC was expanded and seeded using standard growth medium. At 95-99% confluency, cells were thoroughly washed with phosphate-buffered saline (PBS) and exposed to media containing treprostinil at doses ranging from 250 μg/mL to 0.004 μg/mL. After 48 hours of culture, cells were photographed and assessed for treatment-induced changes in morphology.

TNFα expression in MSC = assay: RNA analysis of pro-inflammatory cytokine TNFα in exposed MSC; type: cell-based, human; conditions: 48 hours
Protocol: as §1
(§2) Cells exposed to treprostinil ranging from 250 μg/mL-0.004 μg/mL as described in Example 1 were harvested. RNA of the cells was extracted and then analyzed for pro- and anti-inflammatory cytokines. Cytokines, or small proteins involved in both internal and secreted cell signaling, have been identified to play a role in the inflammatory pathogenesis of PAH (Groth et al., Respiratory Research, 15:47 (2014)).

IL10 expression in MSC = assay: RNA analysis of anti-inflammatory cytokine IL10 in exposed MSC; type: cell-based, human; conditions: 48 hours
Protocol: as §1, §2

iNOS expression in MSC = assay: RNA analysis of immunosuppressive factor iNOS in exposed MSC; type: cell-based, human; conditions: 48 hours
Protocol: as §1
(§3) RNA from MSCs exposed to treprostinil of from 250 μg/mL to 0.004 μg/mL was re-analyzed for several other anti-inflammatory factors.

IDO1 expression in MSC = assay: RNA analysis of immunosuppressive factor IDO1 in exposed MSC; type: cell-based, human; conditions: 48 hours
Protocol: as §1, §3

IL13 expression in MSC = assay: RNA analysis of anti-inflammatory cytokine IL13 in exposed MSC; type: cell-based, human; conditions: 48 hours
Protocol: as §1, §2

HLA expression in MSC = assay: RNA analysis of immunosuppressive factor HLA in exposed MSC; type: cell-based, human; conditions: 48 hours
Protocol: as §1, §3

TGFβ expression in MSC = assay: RNA analysis of immunosuppressive factor TGFβ in exposed MSC; type: cell-based, human; conditions: 48 hours
Protocol: as §1, §3

Structure (SMILES): CCCCC[C@H](O)CC[C@@H]1[C@H]2Cc3cccc(OCC(=O)O)c3C[C@H]2C[C@H]1O [treprostinil]
- MSC morphology (cytotoxic effect) ([1]; 83.3 μg/mL or lower): did not cause morphological changes associated with cell death
- MSC morphology (cytotoxic effect) ([1]; 250 μg/mL): rounded up and detached
- lowering of TNFα expression compared to control (TNFα expression in MSC; 0.3 μg/mL to 83.3 μg/mL): up to 4.7 fold
- TNFα over unexposed control (TNFα expression in MSC; 9.3 μg/mL): decreased
- increase of IL10 expression in MSC (IL10 expression in MSC; 9.3 μg/mL): 5.4 fold
- IL10 signaling over control (IL10 expression in MSC; increasing doses): increase
- iNOS over unexposed control (iNOS expression in MSC; 9.3 μg/mL): increased
- iNOS over control (iNOS expression in MSC; increasing doses): robust increase
- IDO over unexposed control (IDO1 expression in MSC; 9.3 μg/mL): increased
- IDO1 over control (IDO1 expression in MSC; increasing doses): robust increase
- IL13 over unexposed control (IL13 expression in MSC; 9.3 μg/mL): increased
- increase of IL13 expression in MSC (IL13 expression in MSC; 27.8 μg/mL): 8.8 fold
- IL13 signaling over control (IL13 expression in MSC; increasing doses): increase
- HLA over unexposed control (HLA expression in MSC; 9.3 μg/mL): increased
- HLA over control (HLA expression in MSC; increasing doses): robust increase
- TGFβ over unexposed control (TGFβ expression in MSC; 9.3 μg/mL): increased
- TGFβ over control (TGFβ expression in MSC; increasing doses): robust increase
